Measurements as given in article PMC11944884, “Bioactive Secondary Metabolites of Two Chinese Edible Boletes, Phlebopus portentosus and Butyriboletus roseoflavus” (Molecules, 2025).
Where two headings read alike, the source gives them in different places.

Assays:
coxsackievirus B3 = experiment: Anti-coxsackievirus assay (CPE / MTT) in Vero cells; assay type: cell-based
MCF-7/ADR = experiment: Cytotoxicity CCK-8 assay, MCF-7/ADR; assay type: cell-based; details: Homo sapiens, NCI/ADR-RES; for inhibition at 6.25 µM / inhibition at 12.5 µM / inhibition at 50 µM / inhibition at 100 µM / inhibition at 25 µM: 48 h, read-out: Cell proliferation inhibition (%)
Hela229 = experiment: Cytotoxicity CCK-8 assay, Hela229; assay type: cell-based; details: Homo sapiens, HeLa 229; for IC50: Hela229; for inhibition at 6.25 µM: Hela229, 6.25 μM; for inhibition at 6.25 µM / inhibition at 12.5 µM / inhibition at 25 µM / inhibition at 50 µM / inhibition at 100 µM: 48 h, read-out: Cell proliferation inhibition (%); for inhibition at 12.5 µM: Hela229, 12.5 μM; for inhibition at 25 µM: Hela229, 25 μM; for inhibition at 50 µM: Hela229, 50 μM; for inhibition at 100 µM: Hela229, 100 μM
PC-3 = experiment: Cytotoxicity CCK-8 assay, PC-3; assay type: cell-based; details: Homo sapiens; for IC50: PC-3; for inhibition at 6.25 µM: PC-3, 6.25 μM; for inhibition at 6.25 µM / inhibition at 12.5 µM / inhibition at 25 µM / inhibition at 50 µM / inhibition at 100 µM: 48 h, read-out: Cell proliferation inhibition (%); for inhibition at 12.5 µM: PC-3, 12.5 μM; for inhibition at 25 µM: PC-3, 25 μM; for inhibition at 50 µM: PC-3, 50 μM; for inhibition at 100 µM: PC-3, 100 μM
SGC7901 = experiment: Cytotoxicity CCK-8 assay, SGC7901; assay type: cell-based; details: Homo sapiens, SGC-7901; for IC50: SGC7901; for inhibition at 6.25 µM: SGC7901, 6.25 μM; for inhibition at 6.25 µM / inhibition at 12.5 µM / inhibition at 25 µM / inhibition at 50 µM / inhibition at 100 µM: 48 h, read-out: Cell proliferation inhibition (%); for inhibition at 12.5 µM: SGC7901, 12.5 μM; for inhibition at 25 µM: SGC7901, 25 μM; for inhibition at 50 µM: SGC7901, 50 μM; for inhibition at 100 µM: SGC7901, 100 μM
BEL7402 = experiment: Cytotoxicity CCK-8 assay, BEL7402; assay type: cell-based; details: Homo sapiens, Bel-7402; for IC50: BEL7402; for inhibition at 6.25 µM: BEL7402, 6.25 μM; for inhibition at 6.25 µM / inhibition at 12.5 µM / inhibition at 25 µM / inhibition at 50 µM / inhibition at 100 µM: 48 h, read-out: Cell proliferation inhibition (%); for inhibition at 12.5 µM: BEL7402, 12.5 μM; for inhibition at 25 µM: BEL7402, 25 μM; for inhibition at 50 µM: BEL7402, 50 μM; for inhibition at 100 µM: BEL7402, 100 μM
[1] = tested on: Hela229, SGC7901, PC-3, BEL7402, and MCF-7/ADR; experiment: Cytotoxicity CCK-8 assay, small panel of human cancer cell lines (summary statements); assay type: cell-based
SH-SY5Y cells [2] = experiment: Neuroprotection against Aβ25−35-induced neurotoxicity (MTT)
Description: The cells, obtained from the American Type Culture Collection (ATCC, Manassas, VA, USA) at high passages, maintained at 37 °C in a humidified atmosphere containing 5% CO2. Cells were seeded into 96-well plates at a density of 2 × 10^5 cells/mL in MEM/F12 medium supplemented with 10% (v/v) fetal bovine serum. Experiments were carried out after 24 h of seeding. Test compounds and positive control (epigallocatechin-3-gallate, EGCG; NAC) were made to 10^−2 M stock solutions with DMSO and then diluted to corresponding concentrations with cell culture medium. Cells were incubated with test compounds or EGCG (10 μM, Sigma, St. Louis, MO, USA, purity > 98%)/NAC for 2 h, followed by exposure to 80 μM H2O2 or 10 μM Aβ25−35 for another 24 h without medium replacement. After treatment, 10 μL of MTT (5 mg/mL) was added to each well and incubated at 37 °C for 3 h. The cells were finally lysed with 100% DMSO, and the absorbance of MTT formazan was measured at 490 nm using a microplate reader.

influenza virus A/H3N2 = experiment: microbe, parasite or virus in culture; assay type: cell-based, influenza virus A (H3N2 strain); details: for EC50: MDCK
[3] = tested on: influenza virus B/Victoria strain; experiment: microbe, parasite or virus in culture; assay type: cell-based; details: MDCK
[4] = tested on: A/H3N2 and B/Victoria strains; experiment: microbe, parasite or virus in culture; assay type: cell-based; details: Influenza A virus, range over compounds 22 and 26 and both strains
SH-SY5Y cells [5] = experiment: Neuroprotection against H2O2-induced neurotoxicity (MTT); assay type: cell-based
[6] = Influenza A virus, H3N2, MDCK, read-out: CPE inhibition
[7] = Homo sapiens, SH-SY5Y, read-out: Cell viability (% of control group)

CC(C)[C@@H](C)/C=C/[C@@H](C)[C@H]1CC[C@H]2C3=C(CC[C@]12C)[C@@]1(C)CC[C@H](O)C[C@@]12O[C@H]2C3=O [Compound 29, (22E,24R)-5α,6α-epoxy-3β-hydroxy-ergosta-8,22-dien-7-one]
antiviral effect against coxsackievirus B3 (coxsackievirus B3): moderate antiviral effect | increased cell survival (coxsackievirus B3; 100 μg/mL, CVB-infected Vero cells): 35.4% | cytopathic morphology of Vero cells infected with coxsackievirus B3 (coxsackievirus B3; 100 μg/mL, microscope): reversed the cytopathic morphology

COc1cccc2c1C(=O)c1c(O)c3c(c(O)c1C2=O)C[C@@](O)(C(=O)CO)C[C@@H]3O[C@H]1C[C@H](N)[C@H](O)[C@H](C)O1 [Doxorubicin, reference compound]
IC50 (MCF-7/ADR): 35.2 µM | inhibition at 6.25 µM (MCF-7/ADR): 46.5% | inhibition at 12.5 µM (MCF-7/ADR): 44.2% | inhibition at 50 µM (MCF-7/ADR): 52.7% | inhibition at 100 µM (MCF-7/ADR): 52.8% | IC50 (Hela229): 0.75 µM | IC50 (PC-3): 1.78 µM | IC50 (SGC7901): 0.8 µM | IC50 (BEL7402): 1.59 µM | IC50 ([1]; over the panel Hela229, SGC7901, PC-3, BEL7402, MCF-7/ADR, read-out: IC50): 0.75 to 35.2 µM

epigallocatechin-3-gallate [EGCG, reference compound]
Cell viability (% of control group) (SH-SY5Y cells [2]; 10 μM compound, 10 μM Aβ25-35, mean ± SEM): 104.80%

CC(C)[C@@H](C)/C=C/[C@@H](C)[C@H]1CC[C@H]2C3=C(CC[C@]12C)[C@@]1(C)CC[C@H](O)C[C@@]12O[C@H]2[C@H]3O [Compound 26, (22E,24R)-5α,6α-epoxy-ergosta-8,22-dien-3β,7α-diol]
IC50 (influenza virus A/H3N2; Influenza A virus, H3N2, MDCK): 4 µM | inhibition at 0.78 µM (influenza virus A/H3N2; [6]): 3.3% | inhibition at 1.56 µM (influenza virus A/H3N2; [6]): 15% | inhibition at 3.13 µM (influenza virus A/H3N2; [6]): 27.5% | inhibition at 6.25 µM (influenza virus A/H3N2; [6]): 75% | inhibition at 12.5 µM (influenza virus A/H3N2; [6]): 82.5% | EC50 (influenza virus A/H3N2): 4 µM | EC50 [3]: 3.6 µM | IC50 [3]: 3.6 µM | inhibition at 0.78 µM ([3]; read-out: CPE inhibition): 6.6% | inhibition at 1.56 µM ([3]; read-out: CPE inhibition): 15% | inhibition at 3.13 µM ([3]; read-out: CPE inhibition): 25% | inhibition at 6.25 µM ([3]; read-out: CPE inhibition): 75% | inhibition at 12.5 µM ([3]; read-out: CPE inhibition): 75% | EC50 [4]: 3.6 to 9.6 µM

O=C1O/C(=C(/C(=O)O)c2ccc(O)c(O)c2)C(O)=C1c1ccc(O)c(O)c1 [Compound 19, variegatic acid]
viability at 2.5 µM (SH-SY5Y cells [5]; [7]): 56.4 ± 1.79% | viability at 5 µM (SH-SY5Y cells [5]; [7]): 59.3 ± 2.94% | viability at 10 µM (SH-SY5Y cells [5]; [7]): 63.7 ± 2.8% | viability at 20 µM (SH-SY5Y cells [5]; [7]): 71.5% | viability at 40 µM (SH-SY5Y cells [5]; [7]): 81.9%

O=C1O/C(=C(/C(=O)O)c2ccc(O)cc2)C(O)=C1c1ccc(O)c(O)c1 [Compound 18, xerocomic acid]
viability at 2.5 µM (SH-SY5Y cells [2]; [7]): 78.2 ± 1.53% | viability at 5 µM (SH-SY5Y cells [2]; [7]): 77.6 ± 1.97% | viability at 10 µM (SH-SY5Y cells [2]; [7]): 80.3 ± 1.39% | viability at 20 µM (SH-SY5Y cells [2]; [7]): 81.2 ± 1.79% | viability at 40 µM (SH-SY5Y cells [2]; [7]): 90.5%

CC(=O)N[C@@H](CS)C(=O)O [NAC, N-acetylcysteine, reference compound]
Cell viability (% of control group) (SH-SY5Y cells [5]; 500 μM compound, 80 μM H2O2, mean ± SEM): 81.05%

CC(C)[C@@H](C)/C=C/[C@@H](C)[C@H]1CC[C@H]2C3=CC(=O)O[C@@]3(O)CC[C@]12C [Compound 33, demethylincisterol A3]
IC50 (MCF-7/ADR): > 50 µM | inhibition at 6.25 µM (MCF-7/ADR): 5.5% | inhibition at 12.5 µM (MCF-7/ADR): 5.1% | inhibition at 25 µM (MCF-7/ADR): 27.1% | inhibition at 50 µM (MCF-7/ADR): 42.6% | inhibition at 100 µM (MCF-7/ADR): 81.6% | IC50 (Hela229): 24.4 µM | inhibition at 6.25 µM (Hela229): -4.8% | inhibition at 12.5 µM (Hela229): 5.8% | inhibition at 25 µM (Hela229): 52.3% | inhibition at 50 µM (Hela229): 96.2% | inhibition at 100 µM (Hela229): 96.7% | IC50 (PC-3): 28.4 µM | inhibition at 6.25 µM (PC-3): 12.4% | inhibition at 12.5 µM (PC-3): 21.6% | inhibition at 25 µM (PC-3): 47.3% | inhibition at 50 µM (PC-3): 67.7% | inhibition at 100 µM (PC-3): 85.9% | IC50 (SGC7901): 26.7 µM | inhibition at 6.25 µM (SGC7901): 8.3% | inhibition at 12.5 µM (SGC7901): 16.7% | inhibition at 25 µM (SGC7901): 39.1% | inhibition at 50 µM (SGC7901): 93.5% | inhibition at 100 µM (SGC7901): 94.7% | IC50 (BEL7402): 27.7 µM | inhibition at 6.25 µM (BEL7402): 10% | inhibition at 12.5 µM (BEL7402): 15.3% | inhibition at 25 µM (BEL7402): 49.4% | inhibition at 50 µM (BEL7402): 75.3% | inhibition at 100 µM (BEL7402): 82.8% | IC50 ([1]; Hela229, SGC7901, PC-3, and BEL7402 cells, read-out: IC50s): 20 to 30 µM

CC(C)[C@@H](C)/C=C/[C@@H](C)[C@H]1CC[C@H]2C3=C[C@@H](O)[C@@]4(O)C[C@@H](O)CC[C@]4(C)[C@H]3CC[C@]12C [Compound 22, cerevisterol]
IC50 (influenza virus A/H3N2; Influenza A virus, H3N2, MDCK): 9.6 µM | inhibition at 1.56 µM (influenza virus A/H3N2; [6]): 0% | inhibition at 3.13 µM (influenza virus A/H3N2; [6]): 0% | inhibition at 6.25 µM (influenza virus A/H3N2; [6]): 0% | inhibition at 12.5 µM (influenza virus A/H3N2; [6]): 75% | inhibition at 25 µM (influenza virus A/H3N2; [6]): 75% | EC50 (influenza virus A/H3N2): 9.6 µM | EC50 [3]: 6.6 µM | IC50 [3]: 6.6 µM | inhibition at 1.56 µM ([3]; read-out: CPE inhibition): 0% | inhibition at 3.13 µM ([3]; read-out: CPE inhibition): 0% | inhibition at 6.25 µM ([3]; read-out: CPE inhibition): 10% | inhibition at 12.5 µM ([3]; read-out: CPE inhibition): 75% | inhibition at 25 µM ([3]; read-out: CPE inhibition): 75% | EC50 [4]: 3.6 to 9.6 µM

O=C1NCCc2c1[nH]c1ccccc21 [Compound 9, 1,2,3,4-tetrahydro-1-oxo-β-carboline]
IC50 (MCF-7/ADR): > 50 µM | inhibition at 6.25 µM (MCF-7/ADR): -0.9% | inhibition at 12.5 µM (MCF-7/ADR): 1.7% | inhibition at 25 µM (MCF-7/ADR): 3.4% | inhibition at 50 µM (MCF-7/ADR): 2.9% | inhibition at 100 µM (MCF-7/ADR): 2.5% | IC50 (Hela229): 10.8 µM | inhibition at 6.25 µM (Hela229): 37.1% | inhibition at 12.5 µM (Hela229): 53.7% | inhibition at 25 µM (Hela229): 68.7% | inhibition at 50 µM (Hela229): 83.3% | inhibition at 100 µM (Hela229): 88% | IC50 (PC-3): > 50 µM | inhibition at 6.25 µM (PC-3): 3% | inhibition at 12.5 µM (PC-3): 1.7% | inhibition at 25 µM (PC-3): 4% | inhibition at 50 µM (PC-3): 2.6% | inhibition at 100 µM (PC-3): 14% | IC50 (SGC7901): > 50 µM | inhibition at 6.25 µM (SGC7901): 13.2% | inhibition at 12.5 µM (SGC7901): 17.5% | inhibition at 25 µM (SGC7901): 27.1% | inhibition at 50 µM (SGC7901): 37.4% | inhibition at 100 µM (SGC7901): 44.3% | IC50 (BEL7402): 41.5 µM | inhibition at 6.25 µM (BEL7402): 12.5% | inhibition at 12.5 µM (BEL7402): 24.4% | inhibition at 25 µM (BEL7402): 44.4% | inhibition at 50 µM (BEL7402): 56.4% | inhibition at 100 µM (BEL7402): 63.6%
